Assay results: patent US20120142676A1, “Oxathiazine and dithiine oxides as inhibitors of sulfhydryl-dependent biomolecules” (priority 2010, published 2012)
pIC50: −log10 of the molar value.

Key:
[1] = Thioglo-1 fluorescent labeling of sulfhydryl groups, cysteine; conditions: 50 μM drug, 37° C., 3 h, 20 mM Tris pH 8.0
Protocol: (§1) The ability of drugs to label sulfhydryl groups of cysteine, glutathione, human serum albumin (HSA) and biomolecules in K562 cells was determined spectrofluorometrically using Thioglo-1, a maleimide reagent that reacts quickly with the sulfhydryl groups to produce highly fluorescent covalent adducts. Drugs that react with sulfhydryl groups block the formation of fluorescent adducts when sulfhydryl reactant is treated with drugs prior to Thioglo-1 treatment. Cysteine (10 μM), glutathione (10 μM), human serum albumin (10 μM), or K562 cell homogenate (6×10^5 cells) in 20 mM Tris pH 8.0, was treated with 1μl of drug (or not) in DMSO at 50 μM reaction concentration at 37° C. for 3 h, followed by the addition of Thioglo-1 (22 μM). The fluorescence was measured in a Fluostar Galaxy (BMG, Durham, N.C.) fluorescence plate reader using an excitation wavelength of 380 nm and an emission wavelength of 520 nm, and the percentage inhibition of fluorescent labeling was obtained using the following equation: % Inhibition=[(1−(Fdrug−Fbackground)/Fdmso]×100, where Fdrug is the fluorescent value for Thioglo-1 treatment of biomolecules pretreated with drug, Fbackground is the fluorescent value for sample containing Thioglo-1 in Tris buffer only, and Fdmso is the fluorescent value for Thioglo-1 treatment of biomolecules pretreated with DMSO solvent only.

[2] = Thioglo-1 fluorescent labeling of sulfhydryl groups, glutathione; conditions: 50 μM drug, 37° C., 3 h, 20 mM Tris pH 8.0
Protocol: as §1

[3] = molecular target: T1, human serum albumin (HSA) (Homo sapiens, UniProt P02768); assay: Thioglo-1 fluorescent labeling of sulfhydryl groups, human serum albumin; assay type: biochemical; conditions: 50 μM drug, HSA 10 μM, 37° C., 3 h, 20 mM Tris pH 8.0
T1 sequence (P02768 25-609): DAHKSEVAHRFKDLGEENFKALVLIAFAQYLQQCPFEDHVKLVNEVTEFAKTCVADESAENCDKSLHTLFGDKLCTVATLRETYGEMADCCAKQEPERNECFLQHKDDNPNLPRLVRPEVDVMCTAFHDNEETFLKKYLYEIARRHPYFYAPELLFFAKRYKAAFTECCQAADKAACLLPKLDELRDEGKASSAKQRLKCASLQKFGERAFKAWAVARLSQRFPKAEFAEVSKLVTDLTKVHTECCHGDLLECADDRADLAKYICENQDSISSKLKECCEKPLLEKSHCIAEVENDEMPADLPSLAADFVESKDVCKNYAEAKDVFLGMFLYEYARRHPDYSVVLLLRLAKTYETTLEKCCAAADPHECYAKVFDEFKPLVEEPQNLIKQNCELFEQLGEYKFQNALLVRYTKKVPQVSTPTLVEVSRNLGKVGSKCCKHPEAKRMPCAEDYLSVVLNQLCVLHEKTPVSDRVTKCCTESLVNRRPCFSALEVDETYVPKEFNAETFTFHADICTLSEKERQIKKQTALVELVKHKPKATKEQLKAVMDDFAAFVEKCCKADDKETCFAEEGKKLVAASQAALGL
Protocol: as §1

[4] = tested on: K562 cell homogenate; assay: Thioglo-1 fluorescent labeling of sulfhydryl groups, K562 cell homogenate; assay type: biochemical, human; conditions: 50 μM drug, 6×10^5 cells, 37° C., 3 h, 20 mM Tris pH 8.0
Protocol: as §1

[5] = molecular target: T2, human topoisomerase IIα (Homo sapiens, UniProt P11388); assay: Topoisomerase IIα decatenation inhibition assay; assay type: biochemical; conditions: K562 cells nuclear extract, kDNA decatenation
T2 construct: 300 ng K562 cells nuclear extract, the amount that gave 80% decatenation; endogenous in cells; host or cells: K562 cells nuclear extract
T2 sequence (P11388 whole entry): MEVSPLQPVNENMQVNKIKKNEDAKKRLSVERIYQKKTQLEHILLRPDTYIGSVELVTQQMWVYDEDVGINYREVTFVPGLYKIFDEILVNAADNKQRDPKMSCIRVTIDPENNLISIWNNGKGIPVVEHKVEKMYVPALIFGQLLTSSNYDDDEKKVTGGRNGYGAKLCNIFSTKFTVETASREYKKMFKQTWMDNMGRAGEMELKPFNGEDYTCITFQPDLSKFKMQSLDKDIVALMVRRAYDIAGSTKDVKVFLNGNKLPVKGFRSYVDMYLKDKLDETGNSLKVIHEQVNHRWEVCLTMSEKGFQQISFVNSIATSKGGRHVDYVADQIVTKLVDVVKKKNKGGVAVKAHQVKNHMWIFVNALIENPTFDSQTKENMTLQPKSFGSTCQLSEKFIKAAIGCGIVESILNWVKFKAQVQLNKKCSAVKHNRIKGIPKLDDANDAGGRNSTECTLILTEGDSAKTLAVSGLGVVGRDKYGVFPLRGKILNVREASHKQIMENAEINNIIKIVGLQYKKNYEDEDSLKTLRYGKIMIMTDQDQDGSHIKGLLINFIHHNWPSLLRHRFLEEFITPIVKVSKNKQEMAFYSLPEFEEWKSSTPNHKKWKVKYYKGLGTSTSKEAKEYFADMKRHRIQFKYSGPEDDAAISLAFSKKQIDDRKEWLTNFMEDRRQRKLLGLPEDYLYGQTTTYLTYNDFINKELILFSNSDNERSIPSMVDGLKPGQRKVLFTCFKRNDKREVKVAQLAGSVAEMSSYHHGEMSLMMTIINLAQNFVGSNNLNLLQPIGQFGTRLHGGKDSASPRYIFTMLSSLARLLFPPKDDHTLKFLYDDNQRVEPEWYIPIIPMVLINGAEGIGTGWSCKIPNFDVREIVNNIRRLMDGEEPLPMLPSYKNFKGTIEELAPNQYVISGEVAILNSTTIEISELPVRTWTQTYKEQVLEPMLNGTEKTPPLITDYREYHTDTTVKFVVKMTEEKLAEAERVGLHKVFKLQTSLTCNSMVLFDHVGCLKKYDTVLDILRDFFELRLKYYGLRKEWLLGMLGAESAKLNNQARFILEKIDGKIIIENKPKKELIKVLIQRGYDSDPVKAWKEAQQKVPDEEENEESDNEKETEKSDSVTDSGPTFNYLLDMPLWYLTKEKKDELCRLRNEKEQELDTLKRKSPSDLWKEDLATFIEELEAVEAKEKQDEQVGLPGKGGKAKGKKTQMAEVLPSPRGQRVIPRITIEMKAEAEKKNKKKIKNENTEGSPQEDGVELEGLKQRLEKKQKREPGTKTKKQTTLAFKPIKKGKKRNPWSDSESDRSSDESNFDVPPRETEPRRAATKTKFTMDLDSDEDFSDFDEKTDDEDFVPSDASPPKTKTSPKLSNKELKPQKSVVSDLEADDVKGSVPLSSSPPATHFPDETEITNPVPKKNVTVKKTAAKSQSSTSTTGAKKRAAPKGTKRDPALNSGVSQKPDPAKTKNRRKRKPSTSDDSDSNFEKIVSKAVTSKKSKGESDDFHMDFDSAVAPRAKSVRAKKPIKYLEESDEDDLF
Protocol: The catalytic inhibition of human topoisomerase IIα by a drug was measured by the ATP-dependent decatenation of kDNA (Topogen, Columbus, Ohio) into minicircles of DNA as we previously described (Hasinoff 1995 QSAR ICRF-187). The 20 μl reaction mixture contained 0.5 mM ATP, 50 mM Tris-HCl (pH 8.0), 120 mM KCl, 10 mM MgCl2, 30 μg/ml bovine serum albumin, 40 ng kDNA, drug or DMSO (0.5 μl) and 300 ng K562 cells nuclear extract, the amount that gave 80% decatenation. The enzymatic reaction was carried out at 37° C. and was terminated by the addition of 6 μl of buffer containing 5 mM Tris pH 8.0, 30% w/v sucrose, 0.5% bromophenol blue, and 125 mM EDTA. The resulting mixture was separated by electrophoresis (2 h at 8 V/cm) on an agarose gel prepared from 1.2% w/v agarose and 0.5 μg/ml ethidium bromide in TAE buffer pH 8.0 (40 mM Tris base, 0.114% (v/v) glacial acetic acid, 2 mM EDTA). The DNA in the gel was imaged by its fluorescence on an Alpha Annotech Fluorchem 8900 imaging system equipped with a 365 nm illuminator and a CCD camera. Densitometry scanning of gel photographs was used to obtain the fluorescence intensity of the band corresponding to the DNA minicircles. The percentage inhibition of K562 topoisomerase II catalytic activity at concentrations of 3 and 30 μM was determined using the following equation: % Inhibition=[(1−(Bdrug−Bbackground)/Bdmso]×100, where Bdrug is the band intensity value for the enzymatic reaction sample treated with drug, Bbackground is the band intensity value for sample without the enzyme, and Bdmso is the band intensity value for the enzymatic reaction sample treated with DMSO solvent only.

[6] = tested on: human leukemia K562 cells; assay: K562 cell growth inhibition assay (MTS); assay type: cell-based; conditions: 72 h incubation, read-out: Median growth inhibitory concentration (IC50) of K562 cells
Protocol: K562 cells were obtained from American Type Culture Collection (Rockville, Md.). These cells were maintained as suspension cultures in alpha minimum essential medium (αMEM) (Gibco BRL, Burlington, Canada) containing 2 mM L-glutamine and supplemented with 10% fetal calf serum (Invitrogen, Burlington, ON, Canada), 20 mM NaHCO3, 20 mM HEPES (Sigma), 100 units/ml penicillin G, and 100 μg/ml streptomycin at pH 7.4 in an atmosphere of 5% CO2 and 95% air at 37° C. For the measurement of growth inhibition, cells in exponential growth were harvested and seeded at 6000 cells/well in 96-well plates (100 μl/well). Drugs were dissolved in DMSO and added to the wells such that the final concentration of DMSO was 0.5% (v/v). After 72 h incubation, 7 μl of 3-(4,5-dimethylthiazol-2-yl)-5-(3-carboxymethoxyphenyl)-2-(4-sulfophenyl)-2H-tetrazolium (MTS) Cell Titer 96® AQueous One Solution (Promega, Md., WI) was added to each well and incubated for a further 3 h. The absorbance was measured in a Molecular Devices (Menlo Park, Calif.) plate reader. The spectrophotometric 96-well plate cell growth inhibition assay measures the ability of the cells to enzymatically reduce MTS. Three replicates were measured at each drug concentration, and the IC50 values and their SEs for growth inhibition were obtained by fitting the absorbance-drug concentration data to a four-parameter logistic equation.

[7] = molecular target: T1, human serum albumin (HSA); assay: ESI-MS study on covalent labeling of sulfhydryl group of HSA; assay type: binding; conditions: drug with 65 μM HSA, Tris pH 7.5, 5 h, room temperature
Protocol: The MS drug-HSA protein binding studies were carried out using an Applied Biosystems API 2000 Triple Quadrupole mass spectrometer (Thornhill, Canada) equipped with a syringe pump (Harvade Apparatus, Holliston, Mass.) at a flow rate of 5-10 μl/min. The Analyst software (version 1.4) was used for system control and data acquisition. The ESI source was operated in the positive ion mode with an electrospray voltage of +4.4 kV without capillary heating. MagTran freeware (version 1.02, http://www.geocities.com/SiliconValley/Hills/2679/magtran.html) was used for charge state deconvolution of HSA and drug-HSA covalent adducts.
The reaction of drug and HSA was carried out by mixing drug (or not) in DMSO (11μl, 6 mM) with HSA in 16 mM Tris pH 7.5 buffer (1 ml, 65 μM) for 5 h at room temperature. The reaction mixture was then dialyzed using a dialysis membrane with a 10,000 Da cutoff. The dialyzed mixture (150 μl) was diluted with a solution mixture of water (124 μl), methanol (76 μl), and formic acid (17 μl, 6% v/v). Scanning was 1000-1800 m/z units every 4 s with a step size of 0.10 amu.

For `[O-][S+]1CCON=C1c1cc2ccccc2s1` (centres unmarked) [CMPD #9], the “% Inhibition of Thioglo-1 fluorescent labeling of 10 μM Cysteine” value [1] was 100%, the “% Inhibition of Thioglo-1 fluorescent labeling of 10 μM Glutathione” value [2] was 100% and the “% Inhibition of Thioglo-1 fluorescent labeling of Human serum albumin” value [3] was 85%. The “% Inhibition of Thioglo-1 fluorescent labeling of K562 Cell homogenate” value [4] was 95%, the “% Inhibition of topoisomerase II catalytic activity” value ([5]; 3 μM) was 100% and the “% Inhibition of topoisomerase II catalytic activity” value ([5]; 30 μM) was 100%. The pIC50 [6] was 6.15 and the “Covalent labeling of HSA (ESI-MS peak description)” value [7] was “Covalent adduct of HSA and Compound 9”.
